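Five concentrations, 48 hours, 96-well plates. Abbreviation: GI50, concentration required for 50% inhibition of growth.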 Calls of active or inactive are those of the source. Cut-off read from the data, not from the text of the source: active = GI50 up to about 1.1 µM and inactive = higher.
Assays:
Experiment in all cases: growth of human tumour cells (NCI), 48 h
M14 = system: M14
NCI-H522 = system: NCI-H522
SK-MEL-28 = system: SK-MEL-28
EKVX = system: EKVX
SR = system: SR
UO-31 = system: UO-31
IGROV-1 = system: IGROV-1
PC-3 = system: PC-3
RXF 631 = system: RXF 631
DLD-1 = system: DLD-1
XF498 = system: XF498
SK-MEL-5 = system: SK-MEL-5
NCI/ADR-RES = system: NCI/ADR-RES
UACC-257 = system: UACC-257
U-251 = system: U-251
HOP-92 = system: HOP-92
UACC-62 = system: UACC-62
COLO 205 = system: COLO 205
MDA-MB-231 = system: MDA-MB-231
LOX IMVI = system: LOX IMVI
NCI-H23 = system: NCI-H23
OVCAR-5 = system: OVCAR-5
K562 = system: K562
MDA-N = system: MDA-N
CCRF-CEM = system: CCRF-CEM
HCT-15 = system: HCT-15
SNB-19 = system: SNB-19
RPMI-8226 = system: RPMI-8226
CAKI-1 = system: CAKI-1
SNB-75 = system: SNB-75
HOP-62 = system: HOP-62
HCT-116 = system: HCT-116
SF-539 = system: SF-539
SK-MEL-2 = system: SK-MEL-2
KM12 = system: KM12
Malme-3M = system: Malme-3M
SN12C = system: SN12C
SF-268 = system: SF-268
HOP-18 = system: HOP-18
OVCAR-3 = system: OVCAR-3
DMS-114 = system: DMS-114
SW-620 = system: SW-620
HT-29 = system: HT-29
NCI-H460 = system: NCI-H460
OVCAR-8 = system: OVCAR-8
SNB-78 = system: SNB-78
RXF 393 = system: RXF 393
HL-60 = system: HL-60
HCC 2998 = system: HCC 2998
A498 = system: A498
DMS-273 = system: DMS-273
DU-145 = system: DU-145
M19-MEL = system: M19-MEL
T47D = system: T47D
ACHN = system: ACHN
TK-10 = system: TK-10
A549 = system: A549
BT-549 = system: BT-549
786-0 = system: 786-0
LXFL 529 = system: LXFL 529
MCF7 = system: MCF7
NCI-H226 = system: NCI-H226
KM-20L2 = system: KM-20L2
SK-OV-3 = system: SK-OV-3
Hs-578T = system: Hs-578T
MOLT-4 = system: MOLT-4
OVCAR-4 = system: OVCAR-4
SF-295 = system: SF-295
MDA-MB-435 = system: MDA-MB-435

SMILES: CC(=O)NC1COC(COC(=O)CCCCCCCCCCNC(=O)c2ccc([N+](=O)[O-])c3c(=O)c4ccccc4[nH]c23)C(O)C1OC(C)C(=O)NC(C(=O)NC(CCC(N)=O)C(=O)OCc1ccccc1)C(C)C (centres undefined)
- GI50 (M14): 35 µM (inactive)
- GI50 (NCI-H522): 12.3 µM (inactive)
- GI50 (SK-MEL-28): 11.9 µM (inactive)
- GI50 (EKVX): 8.69 µM (inactive)
- GI50 (SR): 7.08 µM (inactive)
- GI50 (UO-31): 8.41 µM (inactive)
- GI50 (IGROV-1): 6.38 µM (inactive)
- GI50 (PC-3): 8.05 µM (inactive)
- GI50 (RXF 631): 27.7 µM (inactive)
- GI50 (DLD-1): 3.21 µM (inactive)
- GI50 (XF498): 5.41 µM (inactive)
- GI50 (SK-MEL-5): 29.6 µM (inactive)
- GI50 (NCI/ADR-RES): 32.9 µM (inactive)
- GI50 (UACC-257): 15.3 µM (inactive)
- GI50 (U-251): 11.5 µM (inactive)
- GI50 (HOP-92): 8.05 µM (inactive)
- GI50 (UACC-62): 25.2 µM (inactive)
- GI50 (COLO 205): 18.8 µM (inactive)
- GI50 (MDA-MB-231): 38.8 µM (inactive)
- GI50 (LOX IMVI): 11.5 µM (inactive)
- GI50 (NCI-H23): 11.4 µM (inactive)
- GI50 (OVCAR-5): 36 µM (inactive)
- GI50 (K562): 9.48 µM (inactive)
- GI50 (MDA-N): 966 nM (active)
- GI50 (CCRF-CEM): 20.8 µM (inactive)
- GI50 (HCT-15): 11.2 µM
- GI50 (SNB-19): 6.03 µM (inactive)
- GI50 (RPMI-8226): 4.97 µM (inactive)
- GI50 (CAKI-1): 15.2 µM (inactive)
- GI50 (SNB-75): 14.4 µM (inactive)
- GI50 (HOP-62): 7.45 µM (inactive)
- GI50 (HCT-116): 12.2 µM (inactive)
- GI50 (SF-539): 20.8 µM (inactive)
- GI50 (SK-MEL-2): 11 µM (inactive)
- GI50 (KM12): 4.85 µM (inactive)
- GI50 (Malme-3M): 38.6 µM (inactive)
- GI50 (SN12C): 32.6 µM (inactive)
- GI50 (SF-268): 7.36 µM (inactive)
- GI50 (HOP-18): 16.8 µM (inactive)
- GI50 (OVCAR-3): 3.57 µM (inactive)
- GI50 (DMS-114): 15.4 µM (inactive)
- GI50 (SW-620): 26.6 µM (inactive)
- GI50 (HT-29): 6.67 µM (inactive)
- GI50 (NCI-H460): 16.9 µM (inactive)
- GI50 (OVCAR-8): 12.6 µM (inactive)
- GI50 (SNB-78): 10.2 µM (inactive)
- GI50 (RXF 393): 4.02 µM (inactive)
- GI50 (HL-60): 445 nM (active)
- GI50 (HCC 2998): 5.96 µM (inactive)
- GI50 (A498): 28.8 µM (inactive)
- GI50 (DMS-273): 8.69 µM (inactive)
- GI50 (DU-145): 5.79 µM (inactive)
- GI50 (M19-MEL): 3.27 µM (inactive)
- GI50 (T47D): 2.25 µM (inactive)
- GI50 (ACHN): 14.8 µM (inactive)
- GI50 (TK-10): 18.5 µM (inactive)
- GI50 (A549): 25 µM (inactive)
- GI50 (BT-549): 48.8 µM (inactive)
- GI50 (786-0): 15 µM (inactive)
- GI50 (LXFL 529): 17.7 µM (inactive)
- GI50 (MCF7): 6.61 µM (inactive)
- GI50 (NCI-H226): 44.9 µM (inactive)
- GI50 (KM-20L2): 16.3 µM (inactive)
- GI50 (SK-OV-3): 39.2 µM (inactive)
- GI50 (Hs-578T): 6.35 µM (inactive)
- GI50 (MOLT-4): 18.6 µM (inactive)
- GI50 (OVCAR-4): 8.26 µM (inactive)
- GI50 (SF-295): 22 µM (inactive)
- GI50 (MDA-MB-435): 36.8 µM (inactive)

Source: ChEMBL document CHEMBL1201862, “PubChem BioAssay data set” (2004)
